Test results from PMC4736399 (Oxidative Medicine and Cellular Longevity, 2016).
pEC50: −log10 of the molar value. Values joined by “and” are separate entries in the source; they are usually repeats but may differ in a detail not shown here. Equal values may be shown once. Where a name gives a salt, the structure may show the parent alone.

Experiments:
[1] = molecular target: T1, SSAO (Homo sapiens, UniProt Q16853); assay: Amplex Red fluorometric detection of benzylamine-induced hydrogen peroxide release in human adipose tissue homogenates; type: biochemical; conditions: for effect on benzylamine-induced H2O2 release: tested agent at 1 mM, 1 mM benzylamine, hAT homogenates, Amplex Red
T1 construct: benzylamine oxidation by hAT preparations, naturally rich in SSAO/VAP-1; from tissue; host or cells: human subcutaneous abdominal adipose tissue (hAT), crude homogenate
T1 sequence (Q16853 1-763): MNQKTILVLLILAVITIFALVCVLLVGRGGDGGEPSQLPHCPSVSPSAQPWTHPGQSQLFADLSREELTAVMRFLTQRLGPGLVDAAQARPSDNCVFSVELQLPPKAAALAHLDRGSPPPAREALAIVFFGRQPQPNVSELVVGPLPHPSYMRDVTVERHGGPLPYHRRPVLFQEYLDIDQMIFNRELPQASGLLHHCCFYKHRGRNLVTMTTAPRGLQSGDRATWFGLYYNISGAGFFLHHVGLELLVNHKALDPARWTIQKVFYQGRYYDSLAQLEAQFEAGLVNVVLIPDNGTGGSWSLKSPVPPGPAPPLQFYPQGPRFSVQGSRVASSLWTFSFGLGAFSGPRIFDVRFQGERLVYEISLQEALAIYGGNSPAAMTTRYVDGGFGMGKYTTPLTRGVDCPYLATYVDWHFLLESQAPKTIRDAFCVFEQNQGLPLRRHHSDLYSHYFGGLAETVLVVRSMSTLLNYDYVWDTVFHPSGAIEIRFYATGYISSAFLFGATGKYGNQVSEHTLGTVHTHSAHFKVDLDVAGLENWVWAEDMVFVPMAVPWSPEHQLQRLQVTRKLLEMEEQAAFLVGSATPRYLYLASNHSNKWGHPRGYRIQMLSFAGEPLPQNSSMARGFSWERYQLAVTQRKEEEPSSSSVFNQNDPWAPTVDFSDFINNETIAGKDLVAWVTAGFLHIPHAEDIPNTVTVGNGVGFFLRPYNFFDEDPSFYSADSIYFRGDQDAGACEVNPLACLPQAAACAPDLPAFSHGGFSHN
Protocol: (§1) Oxidase activity was measured using the fluorescent probe Amplex Red (10-acetyl-3,7-dihydrophenoxazine) designed for the detection of hydrogen peroxide in biological milieu. Assays were performed accordingly to our previous descriptions, which corresponded to slight modifications from the adaptation of such fluorometric method for MAO activity determination. Briefly, hydrogen peroxide release was quantified owing to a chromogenic mixture containing 40 μM Amplex Red and 4 U/mL horseradish peroxidase and to the parallel use of hydrogen peroxide standard solutions ranging from 0.05 to 5 μM (final concentrations). Thawed hAT samples were homogenized in 200 mM phosphate buffer (pH 7.4) during 30 sec with a homogenizer Tissue Master-125 (Omni International, Kennesaw, GA, USA) just prior to the determination of their amine oxidase activity, as previously reported, except that no antiprotease cocktail was added. Homogenates were distributed in 96-well dark microplates (at 50 ± 5 μg protein/well) and incubated at 37°C in the dark for at least 30 min in 200 μL final volume after a 30 min preincubation without (control) or with 1 mM pargyline or semicarbazide to inhibit MAO or SSAO activity, respectively, or even with both reference inhibitors to abolish all AO activity. All phenolic compounds tested for their inhibitory properties were also added during this preincubation step. Tyramine or benzylamine was added to the medium in order to obtain 1 mM concentration and to serve as substrates for AO activities, as already stated.
(§2) Spontaneous hydrogen peroxide formation by homogenates of thawed material was also quantified without any addition of exogenous amine or inhibitor and defined as basal release. The influence of chemical compounds or biochemical agents on the fluorescence readouts generated by the hydrogen peroxide standard curve was also performed without any presence of hAT in a set of experiments called “without biological material.” In all cases, fluorescence data (ex/em: 540/590 nm) were collected on a Fluoroskan Ascent plate reader (ThermoLabsystems, Finland).
Fluorescence readouts after 30 min incubation were substracted from corresponding values at t0 and net increase was set at 100% for 1 mM benzylamine alone. (a) Pargyline (MAO, dark squares) or semicarbazide (SSAO inhibitor, open squares) was present at indicated final concentrations, while their combination was tested at 1 mM (P + S, black triangle). Mean ± SEM of at least 6 homogenates. (b) The phenolic compounds were tested in parallel at the indicated final concentrations. Means ± SEM of 8 to 12 homogenates.

[2] = tested on: human adipocytes; assay: [3H]-2-deoxy-glucose uptake in freshly isolated adipocytes; type: cell-based; conditions: phenolic compound 100 μM (P + S 1 mM each), benzylamine stimulation, 45 min incubation
Protocol: To determine glucose transport activity, hAT was grossly minced and digested at 37°C under shaking in 20 mL of Krebs-Ringer medium containing 0.015 mg/mL liberase (type TM, Roche Diagnostics), 15 mM sodium bicarbonate, 10 mM HEPES, and 3.5% bovine serum albumin. Buoyant adipocytes were separated by filtration through nylon screen and carefully washed in the same medium at pH 7.4 without liberase to obtain adipocyte suspensions as already described. Freshly isolated adipocytes were incubated for 45 min with the tested agents just before [^3H]-2-deoxy-glucose uptake assays (PerkinElmer) performed in 10 min at 37°C in plasticware as already described.
Figure 9 Effects of phenolic compounds, benzylamine, and insulin on glucose transport in human adipocytes. Freshly isolated adipocytes were incubated for 45 min without (basal) or with insulin 100 nM (ins.) or with benzylamine and phenolic compounds at the indicated doses. Then 2-DG uptake assays were performed on 10 min as detailed in Section 2. […] Basal, insulin-stimulated, or benzylamine-stimulated 2-DG uptake was tested without (no addition, open columns) or with pargyline + semicarbazide at 1 mM each (P + S, dark columns). Mean ± SEM of 39 cases. Different from basal alone at ^### P < 0.001. Different from benzylamine alone at ^∗∗∗ P < 0.001. (b) Insulin was used as the agent of reference for maximal transport stimulation, set at 100%. Benzylamine was tested at 1 mM alone (control, open column) or in the presence of 100 μM of the indicated phenolic compounds. Mean ± SEM of 7 observations. Different from benzylamine alone at ^∗ P < 0.05 and ^∗∗ P < 0.01.

[3] = molecular target: T2, SSAO/VAP-1 (Homo sapiens, UniProt Q16853); assay: Radiochemical assay of [14C]-benzylamine oxidation by hAT homogenates; type: biochemical; conditions: 1 mM [14C]-benzylamine, 30 min, up to 1 mM
T2 construct: benzylamine oxidation by hAT preparations, naturally rich in SSAO/VAP-1; from tissue; host or cells: human subcutaneous abdominal adipose tissue (hAT), crude homogenate
T2 sequence (Q16853 1-763): T1 sequence (Q16853 1-763)
Protocol: (§3) Samples of adipose tissue were homogenized as described above. 50 μL of crude homogenates were then incubated for 30 min at 37°C in 200 μL of 200 mM phosphate buffer in the presence of radiolabelled amine after 30 min preincubation without or with inhibitor(s). MAO-dependent oxidation was defined as sensitive to inhibition by 1 mM pargyline, whereas SSAO-dependent oxidation was abolished by 1 mM semicarbazide. Assays were started by addition of the labelled substrate and stopped by adding 50 μL of 4 M HCl. Reaction products of amine oxidation were extracted by 1 mL of organic solvent (toluene/ethyl acetate, 1/1 v/v), according to Tipton's method. Then, 0.7 mL aliquots of the organic phase were counted for radioactivity. Maximal velocity and optimal conditions for determination of amine oxidase activities have been already detailed for human adipocytes, cultured preadipose cells, or hAT homogenates. Thus, inhibition studies were performed only under conditions reaching maximal oxidation velocity, that is, corresponding to the use of tyramine or benzylamine isotopic dilutions giving 1 mM final concentration and reaching approximately 640000 dpm/50 μL for [^14C]-tyramine (provided either by PerkinElmer, Evry, France, or by Sigma-Aldrich) or 200000 dpm/50 μL for [^14C]-benzylamine (NEC 835050UC purchased from PerkinElmer). The radioactivity extracted in the organic phase at time 0 (t0) represented less than 0.5% of the total radioactivity/tube of each labelled amine and was subtracted to all counts with tyramine and benzylamine oxidation without inhibitor averaging 14160 ± 5620 dpm (n = 16) and 15800 ± 1770 dpm (n = 12), respectively. These absolute values, which varied substantially from one individual to another, were set as 100% reference in each subject for the calculation of percentages of inhibition.
Figure 6 Influence of phenolic compounds and MAO inhibitors or SSAO inhibitors on benzylamine oxidation by hAT. (a) Thirty-minute oxidation of 1 mM [^14C]-benzylamine by homogenates generated amounts of radiolabelled benzaldehyde that were separated by extraction as described in Materials and Methods and set at 100% signal (control), while 0% corresponded to the extractible radioactivity at t0. The reference MAO inhibitors (pargyline) or SSAO (semicarbazide) inhibitors were present, separately or in combination at 1 mM, […] before the addition of the radiolabelled substrate. […] Each point is the mean ± SEM of 8 homogenates.

[4] = tested on: MAO; assay: Radiochemical assay of [14C]-tyramine oxidation by hAT homogenates; type: biochemical, human; conditions: 1 mM [14C]-tyramine, 30 min
Protocol: as §3
Figure 5 Influence of phenolic compounds and MAO inhibitors or SSAO inhibitors on tyramine oxidation by hAT. The production of radiolabelled aldehydes resulting from the 30 min incubation of fat tissue homogenates with 1 mM isotopic dilution of [^14C]-tyramine was set at 100% in the absence of added inhibitor, while the background radioactivity detected at t0 was set at 0%. (a) Inhibition by pargyline only of MAO-dependent tyramine oxidation. (b) Influence of phenolic compounds on tyramine oxidation. Each point is the mean ± SEM of 8 (inhibitors) to 12 (phenolic compounds) homogenates.

[5] = Amplex Red-based fluorescence of 5 μM hydrogen peroxide without biological material; conditions: read-out: EC50 for lowering the fluorescent signal elicited by 5 μM hydrogen peroxide; without any human biological material, Amplex Red chromogenic mixture
Protocol: as §2
Figure 4 Influence of amine oxidase substrates or inhibitors and phenolic compounds on fluorescent-based detection of hydrogen peroxide. The chromogenic mixture used for Amplex Red-based fluorometric detection of hydrogen peroxide was incubated with 5 μM H2O2 alone (control set at 100%) or in the presence of the indicated final concentrations of tested chemicals. […] Means ± SEM of 7 measurements without any human material.

[6] = tested on: MAO; assay: Amplex Red fluorometric detection of tyramine-induced hydrogen peroxide release in human adipose tissue homogenates; type: biochemical; conditions: for effect on tyramine-induced H2O2 release: 1 mM tyramine, hAT homogenates, Amplex Red, inhibitors 1 μM to 1 mM
Protocol: as §1, §2

[7] = tested on: MAO-A; parameters: method as in PMID 19013512; conditions: at 10-100 μM, peroxidase-based detection of hydrogen peroxide; cited from earlier work

Structure (SMILES): NCc1ccccc1 [benzylamine, benzylamine hydrochloride]
- effect on hydrogen peroxide production by hAT preparations ([1]; 1 mM benzylamine as substrate, 30 min, versus basal): significantly increased the amount of detected hydrogen peroxide

Structure (SMILES): O=C(O)/C=C/c1ccc(O)c(O)c1 [caffeic acid]
- effect on benzylamine-induced H2O2 release [1]: abolished benzylamine-induced signal
- effect on benzylamine-stimulated deoxyglucose uptake [2]: No clear-cut inhibition
- effect on SSAO-mediated [14C]-benzylamine oxidation [3]: without preventing benzylamine degradation
- effect on [14C]-tyramine oxidation [4]: did not abolish enzyme activity
- pEC50 [5]: 5.46

Structure (SMILES): C#CCN(C)Cc1ccccc1 [pargyline]
- effect on benzylamine-induced H2O2 release [1]: resistant
- effect on SSAO-mediated [14C]-benzylamine oxidation [3]: could not prevent this type of amine metabolism
- effect on [14C]-tyramine oxidation [4]: inhibited
- proportion of tyramine-induced H2O2 production left unaltered ([6]; 1 mM pargyline alone or with 1 mM semicarbazide, 1 mM tyramine = 100%): approximately 30%
- effect on tyramine-induced H2O2 release [6]: inhibited dose-dependently

Structure (SMILES): COc1cc(/C=C/c2ccc(O)cc2)cc(OC)c1 [pterostilbene]
- effect on benzylamine-induced H2O2 release [1]: impaired partially the benzylamine-induced signal
- effect on benzylamine-stimulated deoxyglucose uptake [2]: counteracted the effect of 1 mM benzylamine
- effect on SSAO-mediated [14C]-benzylamine oxidation [3]: without preventing benzylamine degradation
- effect on [14C]-tyramine oxidation [4]: did not abolish enzyme activity
- pEC50 [5]: 5.28

Structure (SMILES): O=c1c(O)c(-c2ccc(O)c(O)c2)oc2cc(O)cc(O)c12 [quercetin]
- effect on benzylamine-induced H2O2 release [1]: impaired partially the benzylamine-induced signal
- effect on benzylamine-stimulated deoxyglucose uptake [2]: counteracted the effect of 1 mM benzylamine
- MAO-A inhibition, in words [7]: inhibit MAO-A in a complete manner
- effect on SSAO-mediated [14C]-benzylamine oxidation [3]: without preventing benzylamine degradation
- pEC50 [5]: 5.70

Structure (SMILES): Oc1ccc(/C=C/c2cc(O)cc(O)c2)cc1 [resveratrol, trans-resveratrol]
- effect on benzylamine-induced H2O2 release [1]: abolished benzylamine-induced signal
- effect on benzylamine-stimulated deoxyglucose uptake [2]: counteracted the effect of 1 mM benzylamine
- effect on SSAO-mediated [14C]-benzylamine oxidation [3]: without preventing benzylamine degradation

Structure (SMILES): NNC(N)=O [semicarbazide]
- proportion of benzylamine-induced H2O2 signal left unaltered ([1]; 1 mM semicarbazide alone or with 1 mM pargyline, 1 mM benzylamine = 100%): 20% and 15–20%
- effect on benzylamine-induced H2O2 release [1]: inhibited
- effect on SSAO-mediated [14C]-benzylamine oxidation [3]: eradicated the generation of labelled benzaldehyde
- effect on [14C]-tyramine oxidation [4]: virtually unable to abolish this activity
- effect on tyramine-induced H2O2 release [6]: totally inefficient

Structure (SMILES): NCCc1ccc(O)cc1 [tyramine, tyramine hydrochloride]
- effect on hydrogen peroxide production by hAT preparations ([6]; 1 mM tyramine as substrate, 30 min, versus basal): to a lesser extent, significantly increased the amount of detected hydrogen peroxide
